In experiment [1] the test system is C. parvum invasion of HCT-8 host cells. As to the kind of experiment: HCT-8 host cell invasion assay. The format is cell-based, Cryptosporidium parvum. Conditions: 11.3 µM, HCT-8 invasion 3 h. The protocol:
(§1) The invasion assay, DNA replication assay, asexual to sexual stage conversion, and time-kill curve assays were performed using fluorescence microscopy to enumerate parasites and host cell nuclei. Staining protocols are individually described for each assay. Unless noted otherwise, the details of image acquisition were as follows. An inverted Nikon Eclipse Ti2000 microscope with an automated stage and Perfect Focus was used with NIS-Elements Advanced Research software (Nikon, USA, version 4.30.01) to image the wells. The microscope was programmed to focus on the center of each well and then take a 3 × 3 composite image per well using a 20 × (0.45 NA) objective. Images were exported as .tiff files and parasites and host nuclei counted using a custom macro on ImageJ (National Institutes of Health, version 1.52a). Data were analyzed using Microsoft Excel and GraphPad Prism (version 6.01).
Host cell invasion was assayed by allowing C. parvum to invade host cell monolayers in the presence of compound, and enumerating parasites and host cells after just 3 h (i.e., before completion of a parasite division cycle)[38]. HCT-8 cells were grown in RPMI media supplemented with 120 U per mL penicillin and 120 μg per mL streptomycin and 10% heat inactivated fetal bovine serum (complete media) and C. parvum Iowa isolate oocysts from Bunch Grass Farms (Deary, ID) were used for infection. When cells reached a confluence of >99%, media was removed and replaced with 25 µL per well of fresh media containing twice the indicated concentrations of compounds and incubated for 1 h at 37 °C in a humidified CO2 incubator. In the meantime, oocysts were induced for excystation by first treating with 10 mM hydrochloric acid (diluted with distilled water) for 10 min at 37 °C followed by 2 mM sodium taurocholate (in phosphate buffered saline (PBS) with calcium and magnesium) for 10 min at 16 °C. Before and after each treatment, oocysts were spun down at 14,000 × g for 4.5 min and supernatant was removed. […]

The subject of experiment [2] is C. parvum DMC1 positive parasites. Also on record: method as in PMID 31015448. Conditions: cited from earlier work.
A further experiment has as its system C. parvum. As to the kind of experiment: C. parvum growth inhibition in HCT-8 cells (follow-up assay, Vicia villosa lectin staining). The experiment is classed as cell-based, Cryptosporidium parvum. Conditions: Iowa (BGF, 10%FBS), HCT-8, single replicates, unit inferred, read-out: In vitro efficacy (Fig 2b, EC50). On the procedure: Follow-up assays were performed at the University of Vermont (UVM) and Calibr at Scripps Research by infection of the colonic adenocarcinoma cell line HCT-8 (ATCC CCL-244) and staining with the Vicia villosa lectin and DAPI[17],[32]. The FBS concentrations and parasites used for these assays were as indicated; parasite isolates and sources included C. parvum Iowa isolate oocysts purchased from Bunch Grass Farm (Deary, ID), C. parvum Iowa isolate oocysts purchased from the Sterling Laboratory (University of Arizona, Tucson, AZ), wild type C. parvum oocysts provided by Dr. Jenni Zambriski (Virginia Tech, Blacksburg, VA), and the C. hominis TU502 isolate purchased from Dr. Saul Tzipori (Tufts University Cummings School of Veterinary Medicine, North Grafton, MA). […] Amphotericin B (Sigma, catalog# A2942) was added to the culture media at 0.1 to 0.5 µg per mL for the DMC1 dose response assays.

For experiment [3], the system named is C. parvum (Bunch Grass Farms Iowa isolate). Nature of the experiment: Time-kill curve assay in HCT-8 cells. The experiment is classed as cell-based, Cryptosporidium parvum. Conditions: for time-kill curve result: compound added ~24 h after infection of HCT-8. The protocol:
as §1, with “6.01). […] C. parvum Iowa isolate oocysts (Bunch Grass Farms, Deary, ID) were treated to induce excystation and added to >90% confluent HCT-8 cells in 384-well plates. […] The monolayers were then washed, fixed, and stained with Vicia villosa lectin and DAPI at the indicated time points, and imaged as for the C. parvum growth assay. Separate 384-well plates were used for each time point. Parasite numbers were normalized to host cell nucleus numbers and expressed as the percentage of host cells infected. Drug-induced parasite decay was isolated from the reduction in parasites over time that occurs spontaneously in the HCT-8 culture system by expressing the number of parasites as the percentage of the number of parasites present at each time point under control (DMSO-treated) conditions.” for “6.01).”

For experiment [4] the test system is unchanged. Nature of the experiment: NOD scid gamma (NSG) mouse model of established C. parvum infection. Conditions: for parasite fecal shedding (qPCR), individual mice: 2,000 mg/kg. The experiment is classed as in vivo, NOD scid gamma mice. The protocol: NOD scid gamma mice (NOD.Cg-Prkdcscid Il2rgtm1Wjl/SzJ)[55] (NSG) were used to model chronic Cryptosporidium infection. All NSG mouse studies were performed in compliance with animal care guidelines and with approval by the University of Vermont Institutional Animal Care and Use Committee. NSG mice with normal flora were purchased from The Jackson Laboratory (Bar Harbor, ME) and were housed for at least a week for acclimatization. […] Fecal parasite shedding was measured using a quantitative PCR (qPCR) assay, and the primers named above as Cp18s forward and Cp18s reverse.

Where “and” joins values, the source holds several entries; their conditions need not be identical. Equal entries are not always repeated. Where two headings read alike, the source gives them in different places.

As to `CN(C)C[C@H](O)Cn1c2ccc(Br)cc2c2cc(Br)ccc21` (racemic) [Wiskostatin, wiskostatin], the “% Inhibition (normalized to DMSO control)” value in experiment [1] stood at 92%. In experiment [1] (Cryptosporidium parvum, HCT-8, 3 h, read-out: % Inhibition (normalized to DMSO control)), the inhibition (usually the relative decrease from the control value, in per cent) at 11.3 µM was 90%.

As to `O=C(Nc1ccc(Cl)cc1)N1CCN(c2ccc3nncn3n2)CC1` [MMV665917], the “potency against asexual vs sexual stage parasites” value in experiment [2] was “equal potency against asexual and sexual stage parasites”.

On to `CC(=O)Oc1ccccc1C(=O)Nc1ncc([N+](=O)[O-])s1` [Nitazoxanide, nitazoxanide], for which the EC50 – broadly, the concentration giving half of the maximal effect – was 1190 nM in the experiment with C. parvum (Cryptosporidium parvum, HCT-8, in Vicia villosa); 2090 nM and 1750 nM with C. parvum. The “% C. parvum relative to DMSO control” value in experiment [3] (EC90, 0 h exposure) was 92.14% and 109.39% and 105.07% and 102.65%; in experiment [3] (EC90, 6 h exposure), 89.44% and 63.73% and 107.77% and 101.99%; in experiment [3] (EC90, 12 h exposure) it was 64.07% and 50.47% and 61.96% and 52.34%; in experiment [3] (EC90, 24 h exposure) it was 33.99% and 23.15% and 39.39% and 30.38%; in experiment [3] (EC90, 48 h exposure), 66.11% and 87.75% and 96.10% and 82.36%; in experiment [3] (EC90, 72 h exposure), 59.95% and 89.51% and 62.55% and 99.92%. Moreover, the results for the time-kill curve result in experiment [3] and in experiment [3] (listed as NTZ) were “likely parasitistatic or very slow acting” and “No exponential decay curve can be fit”, respectively. The “% Parasite / host nuclei” value was 25.13% and 23.57% and 25.93% and 26.94% in experiment [3] (compound at 3 x EC90, 0 h exposure, listed as Nitazonxanide); 30.07% and 28.12% and 27.66% in experiment [3] (compound at 3 x EC90, 6 h exposure, listed as Nitazonxanide); 13.35% and 18.43% and 17.09% and 15.85% in experiment [3] (compound at 3 x EC90, 24 h exposure, listed as Nitazonxanide); 16.05% and 22.2% and 25.78% and 20.53% in experiment [3] (compound at 3 x EC90, 48 h exposure, listed as Nitazonxanide); “Toxic” in experiment [3] (compound at 3 x EC90, 72 h exposure); 26.94% and 25.13% and 23.57% and 25.93% in experiment [3] (compound at 6 x EC90, 0 h exposure, listed as Nitazonxanide). Also, the “% Parasite / host nuclei” value in experiment [3] (compound at 6 x EC90, 6 h exposure, listed as Nitazonxanide) is 30.15% and 26.39% and 33.45% and 27.12%; in experiment [3] (compound at 6 x EC90, 24 h exposure, listed as Nitazonxanide), 10.66% and 16.54% and 13.19% and 15.55%; in experiment [3] (compound at 6 x EC90, 48 h exposure, listed as Nitazonxanide), 24.32% and 23.51% and 19.71% and 19.93%; in experiment [3] (compound at 6 x EC90, 72 h exposure), “Toxic”; in experiment [3] (compound at 9 x EC90, 0 h exposure, listed as Nitazonxanide) it was 26.94% and 25.13% and 23.57% and 25.93%; in experiment [3] (compound at 9 x EC90, 6 h exposure, listed as Nitazonxanide), 26.17% and 22.66% and 19.45% and 20.04%. Moreover, the “% Parasite / host nuclei” value in experiment [3] (compound at 9 x EC90, 24 h exposure, listed as Nitazonxanide) was 13.32% and 10.07% and 14.28% and 12.9%; in experiment [3] (compound at 9 x EC90, 48 h exposure, listed as Nitazonxanide), 23.17% and 21.12% and 20.67% and 21.26%; in experiment [3] (compound at 9 x EC90, 72 h exposure), “Toxic”; in experiment [3] (compound at 12 x EC90, 0 h exposure, listed as Nitazonxanide) it was 26.94% and 25.13% and 23.57% and 25.93%; in experiment [3] (compound at 12 x EC90, 24 h exposure, listed as Nitazonxanide), 12.84% and 10.89% and 15.16% and 10.85%; in experiment [3] (compound at 12 x EC90, 48 h exposure, listed as Nitazonxanide), 17.1% and 18.74% and 17.39% and 22.34%. Besides, the “% Parasite / host nuclei” value in experiment [3] (compound at 12 x EC90, 72 h exposure) is “Toxic”; in experiment [3] (compound at EC50, 0 h exposure, listed as Nitazonxanide) it was 26.94% and 25.13% and 23.57% and 25.93%; in experiment [3] (compound at EC50, 6 h exposure, listed as Nitazonxanide) it was 25.94% and 27.24% and 39.66% and 24.06%; in experiment [3] (compound at EC50, 24 h exposure, listed as Nitazonxanide), 49.74% and 52.37% and 49.99% and 64.54%; in experiment [3] (compound at EC50, 48 h exposure, listed as Nitazonxanide), 50.13% and 44.73% and 56.15% and 36.04%; in experiment [3] (compound at EC50, 72 h exposure, listed as Nitazonxanide), 36.74% and 33.35% and 25.45% and 34.5%. Besides, the “% Parasite / host nuclei” value in experiment [3] (compound at EC90, 0 h exposure, listed as Nitazonxanide) was 26.94% and 25.13% and 23.57% and 25.93%; in experiment [3] (compound at EC90, 6 h exposure, listed as Nitazonxanide) it was 29.07%; in experiment [3] (compound at EC90, 24 h exposure, listed as Nitazonxanide), 18.51% and 12.77% and 20.62% and 15.68%; in experiment [3] (compound at EC90, 48 h exposure, listed as Nitazonxanide), 23.29% and 31.8% and 31.94% and 28.34%; in experiment [3] (compound at EC90, 72 h exposure, listed as Nitazonxanide), 16.17% and 23.44% and 16.12% and 24.86%.

As for `NC[C@@H]1O[C@H](O[C@H]2[C@@H](O)[C@H](O[C@@H]3[C@@H](O)[C@H](N)C[C@H](N)[C@H]3O[C@H]3O[C@H](CO)[C@@H](O)[C@H](O)[C@H]3N)O[C@@H]2CO)[C@H](N)[C@@H](O)[C@@H]1O` [Paromomycin, paromomycin, reference compound], the “parasite fecal shedding (qPCR), individual mice” value in experiment [4] (D7 (before treatment)) is 801.749 oocysts/mg feces and 822.565 oocysts/mg feces and 435.223 oocysts/mg feces and 38.903 oocysts/mg feces; in experiment [4] (D11) it was 28.872 oocysts/mg feces and 141.665 oocysts/mg feces and 45.072 oocysts/mg feces and 47.829 oocysts/mg feces. Besides, in experiment [4] (paromomycin positive control, after 4 days of treatment, once daily oral), the “reduction of fecal parasite shedding” value was about 90%.

Values taken from article PMC6597546, “Identification of a potent benzoxaborole drug candidate for treating cryptosporidiosis” (Nature Communications, 2019).
